According to PubChem BioAssay AID248 (DTP/NCI, 2004):
“And” between values parts separate entries of the source, which are not always exact repeats. Equal values may be shown once. Toxic doses and inconclusive results are not listed. No stated cut-off is given here; in the data, active means T/C of 150% or more; inactive means T/C below 125%.

System: L1210 leukemia ip in BDF1 mice, survival T/C
Test: NCI In Vivo Anticancer Drug Screen. Data for tumor model L1210 Leukemia (intraperitoneal) in B6D2F1 (BDF1) mice
Settings: endpoint: mean survival time, higher = longer survival
Outline: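 Ratio derived from survival: compound-dosed mice over vehicle-dosed mice, all bearing a transplantable tumor.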

[1] = dose: 100.0 mg/kg/injection, schedule: Q01DX009 (ip), vehicle: saline with Tween-80
[2] = dose: 100.0 mg/kg/injection, schedule: Q04DX002 (ip), vehicle: saline with Tween-80
[3] = dose: 100.0 mg/kg/injection, schedule: Q04DX003 (ip), vehicle: saline with Tween-80
[4] = dose: 200.0 mg/kg/injection, schedule: Q01DX009 (ip), vehicle: saline with Tween-80
[5] = dose: 200.0 mg/kg/injection, schedule: Q04DX002 (ip), vehicle: saline with Tween-80
[6] = dose: 200.0 mg/kg/injection, schedule: Q04DX003 (ip), vehicle: saline with Tween-80
[7] = dose: 400.0 mg/kg/injection, schedule: Q01DX009 (ip), vehicle: saline with Tween-80
[8] = dose: 400.0 mg/kg/injection, schedule: Q04DX002 (ip), vehicle: saline with Tween-80
[9] = dose: 400.0 mg/kg/injection, schedule: Q04DX003 (ip), vehicle: saline with Tween-80
[10] = dose: 50.0 mg/kg/injection, schedule: Q01DX001 (ip), vehicle: carboxymethylcellulose (CMC)
[11] = dose: 100.0 mg/kg/injection, schedule: Q01DX001 (ip), vehicle: carboxymethylcellulose (CMC)
[12] = dose: 200.0 mg/kg/injection, schedule: Q01DX001 (ip), vehicle: carboxymethylcellulose (CMC)
[13] = dose: 400.0 mg/kg/injection, schedule: Q01DX001 (ip), vehicle: carboxymethylcellulose (CMC)
[14] = dose: 100.0 mg/kg/injection, schedule: Q01DX009 (ip), vehicle: other
[15] = dose: 100.0 mg/kg/injection, schedule: Q04DX003 (ip), vehicle: other
[16] = dose: 200.0 mg/kg/injection, schedule: Q01DX009 (ip), vehicle: other
[17] = dose: 200.0 mg/kg/injection, schedule: Q04DX003 (ip), vehicle: other
[18] = dose: 400.0 mg/kg/injection, schedule: Q04DX003 (ip), vehicle: other
[19] = dose: 100.0 mg/kg/injection, schedule: Q01DX001 (ip), vehicle: Klucel (hydroxypropylcellulose) (HPC)
[20] = dose: 200.0 mg/kg/injection, schedule: Q01DX001 (ip), vehicle: Klucel (hydroxypropylcellulose) (HPC)
[21] = dose: 400.0 mg/kg/injection, schedule: Q01DX001 (ip), vehicle: Klucel (hydroxypropylcellulose) (HPC)
[22] = dose: 100.0 mg/kg/injection, schedule: Q01DX001 (ip), vehicle: saline with Tween-80
[23] = dose: 25.0 mg/kg/injection, schedule: Q01DX009 (ip), vehicle: saline with Tween-80
[24] = dose: 25.0 mg/kg/injection, schedule: Q04DX003 (ip), vehicle: saline with Tween-80
[25] = dose: 50.0 mg/kg/injection, schedule: Q04DX003 (ip), vehicle: saline with Tween-80

Measured: T/C

Cc1ccc(Cl)cc1NC(=O)N(C)Cc1ccccc1
inactive: [1] 95 % of control and 104 % of control | [2] 94 % of control and 120 % of control | [3] 100 % of control | [4] 97 % of control and 104 % of control | [5] 98 % of control and 105 % of control | [6] 105 % of control | [7] 97 % of control and 108 % of control | [8] 98 % of control and 86 % of control | [9] 108 % of control

Cc1ccc2ccccc2c1N(CC(=O)O)S(=O)(=O)c1ccccc1
inactive: dose: 100.0 mg/kg/injection, schedule: Q04DX003 (ip), vehicle: saline sonified 93 % of control | dose: 200.0 mg/kg/injection, schedule: Q04DX003 (ip), vehicle: saline sonified 102 % of control | dose: 400.0 mg/kg/injection, schedule: Q04DX003 (ip), vehicle: saline sonified 101 % of control

O=P(O)(O)c1ccccc1
inactive: [10] 96 % of control | [11] 107 % of control | [12] 98 % of control

Nc1cccc2c1[nH]c(=O)c1ccccc12
inactive: [11] 95 % of control | [12] 97 % of control | [13] 97 % of control

COc1cc(OC)c2c(c1)-n1cccc1C2=O
inactive: dose: 100.0 mg/kg/injection, schedule: Q04DX002 (ip), vehicle: Klucel (hydroxypropylcellulose) (HPC) 101 % of control | dose: 200.0 mg/kg/injection, schedule: Q04DX002 (ip), vehicle: Klucel (hydroxypropylcellulose) (HPC) 104 % of control | dose: 400.0 mg/kg/injection, schedule: Q04DX002 (ip), vehicle: Klucel (hydroxypropylcellulose) (HPC) 93 % of control

CC(=O)c1cccnc1
inactive: dose: 50.0 mg/kg/injection, schedule: Q01DX001 (ip), vehicle: saline 104 % of control | dose: 100.0 mg/kg/injection, schedule: Q01DX001 (ip), vehicle: saline 91 % of control | dose: 200.0 mg/kg/injection, schedule: Q01DX001 (ip), vehicle: saline 93 % of control

O=[N+]([O-])c1ccc(N=C(Nc2ccc([N+](=O)[O-])cc2)c2ccccc2)cc1
inactive: [14] 92 % of control | [15] 96 % of control | [16] 101 % of control | [17] 102 % of control | dose: 400.0 mg/kg/injection, schedule: Q01DX009 (ip), vehicle: other 97 % of control | [18] 91 % of control

CCC(C(=O)c1cccs1)C(O)(C(F)(F)F)C(F)(F)F (centres undefined)
inactive: [19] 102 % of control | [20] 97 % of control | [21] 94 % of control

CCN1C(=O)CC(SC2CC(=O)N(CC)C2=O)C1=O (centres undefined)
inactive: [11] 100 % of control | [12] 94 % of control | [13] 94 % of control

COC(=O)C(CC/C(=N\Nc1ccc([N+](=O)[O-])cc1[N+](=O)[O-])c1ccccc1)C(=O)OC
inactive: dose: 25.0 mg/kg/injection, schedule: Q01DX001 (ip), vehicle: saline with Tween-80 95 % of control | dose: 50.0 mg/kg/injection, schedule: Q01DX001 (ip), vehicle: saline with Tween-80 88 % of control | [22] 91 % of control

CNc1nc(Cl)ncc1C
inactive: dose: 0.2 mg/kg/injection, schedule: Q01DX Z (ip), vehicle: methylcellulose (MC) 90 % of control | dose: 0.5 mg/kg/injection, schedule: Q01DX Z (ip), vehicle: methylcellulose (MC) 89 % of control

Oc1c(Cl)cc(Cl)cc1C1N(Cc2ccc(N(CCCl)CCCl)cc2Cl)CCCN1Cc1ccc(N(CCCl)CCCl)cc1Cl
inactive: [10] 109 % of control | [11] 105 % of control | [12] 103 % of control | [13] 103 % of control

CCOc1ccnc(OCC)n1
inactive: [23] 86 % of control | [24] 95 % of control | dose: 50.0 mg/kg/injection, schedule: Q01DX009 (ip), vehicle: saline with Tween-80 100 % of control | [25] 97 % of control | [1] 91 % of control | [3] 106 % of control

COC1(OC)CC2C(=O)CCCC21OC (centres undefined)
inactive: [2] 100 % of control | [5] 93 % of control | [8] 97 % of control

CN=C(NC)c1cccc(NC(=O)c2ccc(C(=O)Nc3cccc(C(=NC)NC)c3)c(N)c2)c1
inactive: dose: 0.5 mg/kg/injection, schedule: Q01DX015 (ip), vehicle: water 102 % of control | dose: 1.0 mg/kg/injection, schedule: Q01DX015 (ip), vehicle: water 102 % of control | dose: 2.0 mg/kg/injection, schedule: Q01DX015 (ip), vehicle: water 110 % of control | dose: 3.75 mg/kg/injection, schedule: Q01DX Z (ip), vehicle: water 91 % of control | dose: 4.0 mg/kg/injection, schedule: Q01DX015 (ip), vehicle: water 102 % of control | dose: 7.5 mg/kg/injection, schedule: Q01DX Z (ip), vehicle: water 87 % of control | dose: 15.0 mg/kg/injection, schedule: Q01DX Z (ip), vehicle: water 93 % of control

CC1=C(N2CCCC2)CCCC1=O
inactive: dose: 100.0 mg/kg/injection, schedule: Q04DX002 (ip), vehicle: saline 112 % of control | dose: 200.0 mg/kg/injection, schedule: Q04DX002 (ip), vehicle: saline 107 % of control

CCOC(=O)C1C2C=CC=CC(=O)C21 (centres undefined)
inactive: [14] 102 % of control | [15] 95 % of control | [16] 95 % of control | [17] 95 % of control | [18] 105 % of control

CCCN1CSC(=S)N(Cc2ccccc2)C1
inactive: [3] 95 % of control | [6] 93 % of control | [9] 90 % of control

Cc1ccc(C(=O)NC(N)=O)cc1
inactive: dose: 100.0 mg/kg/injection, schedule: Q01DX009 (ip), vehicle: Klucel (hydroxypropylcellulose) (HPC) 101 % of control | dose: 200.0 mg/kg/injection, schedule: Q01DX009 (ip), vehicle: Klucel (hydroxypropylcellulose) (HPC) 95 % of control

NC(=O)NC1c2ccccc2-c2ccccc21
inactive: [10] 93 % of control | [11] 93 % of control | [12] 93 % of control | [13] 93 % of control

CCNS(=O)(=O)c1ccc(C(N)=S)cc1
inactive: [22] 100 % of control | dose: 200.0 mg/kg/injection, schedule: Q01DX001 (ip), vehicle: saline with Tween-80 97 % of control | dose: 400.0 mg/kg/injection, schedule: Q01DX001 (ip), vehicle: saline with Tween-80 98 % of control

N#CC1(C#N)C2C=CC(C3C(Cl)C=CC32)C1(C#N)C#N (centres undefined)
inactive: dose: 12.5 mg/kg/injection, schedule: Q01DX009 (ip), vehicle: saline with Tween-80 87 % of control | dose: 12.5 mg/kg/injection, schedule: Q04DX003 (ip), vehicle: saline with Tween-80 96 % of control | [23] 89 % of control | [24] 94 % of control | [25] 97 % of control

COc1cc(N)nc(OC)n1
inactive: [1] 98 % of control | [4] 98 % of control | [7] 97 % of control

CC(C)C(N=Cc1cc(Cl)ccc1O)C(=O)O (centres undefined)
inactive: dose: 100.0 mg/kg/injection, schedule: Q01DX001 (ip), vehicle: steriod suspending solution 105 % of control | dose: 200.0 mg/kg/injection, schedule: Q01DX001 (ip), vehicle: steriod suspending solution 94 % of control | dose: 400.0 mg/kg/injection, schedule: Q01DX001 (ip), vehicle: steriod suspending solution 104 % of control

CCCCc1c(-c2ccccc2)nc(N)[nH]c1=O
inactive: [19] 103 % of control | [20] 102 % of control | [21] 104 % of control
